These results are taken from US9096630B2, “Amphiphilic compositions and methods for preparing and using same” (Yale University, priority 2009, dated 2015).

Like-named read-outs stand apart in the source and are kept apart here.

A short description of series [1]: Ross-Miles foam test (ASTM D1173). Type of series: physicochemical. Particulars: for foam enhancing and stabilizing capability compared with Compound 1: photoisomers of Compound 1.
Series [2] in a line: Critical micelle concentration and surface tension measurement (tensiometer, Pt plate). Particulars: for CMC / γmin: room temperature; for CMC: DI water; for γmin: DI water (calibrated to 72.7±0.2 mN/m); for behavior in terms of CMC compared with Compound 1 / behavior in terms of interfacial tension (γ) reduction compared with Compound 1: photoisomers of Compound 1. Type of series: physicochemical. As for the experimental part:
To characterize the behavior of the compounds of this invention as surfactants, surface tension can be plotted as a function of concentration and critical micelle concentrations (CMCs) of these surfactants can be calculated. In addition, the hydrophobic-lipophilic balance (HLB) of a surfactant can be calculated according to Griffin's Method. See e.g., Pasquali, R. C.; Taurozzi, M. P.; Bregni, C. Int. J. Pharm.
The CMC for compounds of the invention is determined using known methods in the art.
See, e.g., Pasquali, R. C.; Taurozzi, M. P.; Bregni, C. Int. J. Pharm. […] 14.

The conditions of series [3]: O-alkylglucoside reference, see Rybinski and Hill 1998; cited from earlier work.

Turning to `CCCCCC1CC(=O)C([C@@H]2O[C@H](CO)[C@@H](O)[C@H](O)[C@H]2O)=CC1CCCC` (stereo partly drawn) [Compound 3, 4-butyl-5-pentyl-2-((2S,3R,4R,5S,6R)-3,4,5-trihydroxy-6-(hydroxymethyl)tetrahydro-2H-pyran-2-yl)cyclohex-2-enone], the “foaming properties when combined with SDS” value in series [1] (combined with SDS as a 20% solution, compared with SDS alone) is “exceeded that of SDS alone”. In series [1] (combined with SDS as a 20% solution, over 5 minutes), the “foam height over 5 minutes when combined with SDS” value is reported as “remained unchanged”. For the same compound, the “excess foam after 5 minutes” value in series [1] (surfactant alone, after 5 minutes, FIG. 2) is “virtually no excess foam”. Moreover, the “reduction in Interfacial Tension (IFT)” value in series [2] (comparison of CMC curves between series, FIG. 1) was “greatest reduction in Interfacial Tension (IFT)”. For the same compound, the “estimated CMC” value in series [2] (estimated from point of inflection of CMC curve, FIG. 1) is given as “very low”. In addition, in series [2], the CMC is on record as 0.17 mM and the γmin came to 22 mN/m.
In series [2], `CCCCCCCCCCC/C=C/C(=O)C[C@@H]1O[C@H](CO)[C@@H](O)[C@H](O)[C@H]1O` [Compound 1, (E)-1-((2S,3R,4R,5S,6R)-3,4,5-trihydroxy-6-(hydroxymethyl)tetrahydro-2H-pyran-2-yl)pentadec-3-en-2-one] gave a CMC of 0.1 mM and a γmin of 28 mN/m.
As to `CCCCCCCCCC/C=C/CC(=O)C[C@@H]1OC(CO)[C@@H](O)[C@H](O)C1O` (some centres unmarked) [Compound 47], the “foam enhancing and stabilizing capability compared with Compound 1” value in series [1] is recorded as “substanitally the same behavior”. In addition, in series [2], the “behavior in terms of CMC compared with Compound 1” value was “substanitally the same behavior” and the “behavior in terms of interfacial tension (γ) reduction compared with Compound 1” value was “substanitally the same behavior”.
`CCCCC/C=C/C(=O)C[C@@H]1O[C@H](CO)[C@@H](O)[C@H](O)[C@H]1O` [Compound 46, (E)-1-((2S,3R,4R,5S,6R)-3,4,5-trihydroxy-6-(hydroxy-methyl)tetrahydro-2H-pyran-2-yl)non-3-en-2-one]: in series [2], the CMC is listed as 3.9 mM and the γmin is reported as 24 mN/m.
In series [2], `CCCC1CC(=O)C([C@@H]2O[C@H](CO)[C@@H](O)[C@H](O)[C@H]2O)=CC1CC` (stereo partly drawn) [Compound 2, 4-ethyl-5-propyl-2-((2S,3R,4R,5S,6R)-3,4,5-trihydroxy-6-(hydroxymethyl)tetrahydro-2H-pyran-2-yl)cyclohex-2-enone] registered a CMC of 52.2 mM and a γmin of 30 mN/m.
Consider `CCCCCCCCCC/C=C\CC(=O)C[C@@H]1OC(CO)[C@@H](O)[C@H](O)C1O` (some centres unmarked) [Compound 48], for which the “foam enhancing and stabilizing capability compared with Compound 1” value in series [1] was “substanitally the same behavior”. For the same compound, in series [2], the “behavior in terms of CMC compared with Compound 1” value is reported as “substanitally the same behavior” and the “behavior in terms of interfacial tension (γ) reduction compared with Compound 1” value was “substanitally the same behavior”.
For `CCCCCCCCCCCCO[C@@H]1O[C@H](CO)[C@@H](O)[C@H](O)[C@H]1O` [Dodecyl-AG], in series [3], the CMC is reported as 0.17 mM and the γmin is listed as 24 mN/m.
For the compound `CCCCCCCCO[C@@H]1O[C@H](CO)[C@@H](O)[C@H](O)[C@H]1O` [Octyl-AG], in series [3], the CMC is recorded as 18.0 mM and the γmin is reported as 24 mN/m.
